Measurements published in US20250367322A1, “NUCLEOBASE EDITING SYSTEM AND METHOD OF USING SAME FOR MODIFYING NUCLEIC ACID SEQUENCES” (ReNAgade Therapeutics Management, Inc., priority 2022, published 2025).

B1: TnpB (SEQ ID NO: 1): "TnpB (SEQ ID NO: 1) endonuclease edits human EMX1 locus (hEMX1) in HEK293T cells" (protein)
chain: MIRNKAFVVRLYPNAAQTELINRTLGSARFVYNHFLARRIAAYKESGKGLTYGQTSSELTLLKQAEETSWLSEVDKFALQNSLKNLETAYKNFFRTVKQSGKKVGFPRFRKKRTGESYRTQFTNNNIQIGEGRLKLPKLGWVKTKGQQDIQGKILNVTVRRIHEGHYEASVLCEVEIPYLPAAPKFAAGVDVGIKDFAIVTDGVRFKHEQNPKYYRSTLKRLRKAQQTLSRRKKGSARYGKAKTKLARIHKRIVNKRQDFLHKLTTSLVREYEIIGTEHLKPDNMRKNRRLALSISDAGWGEFIRQLEYKAAWYGRLVSKVSPYFPSSQLCHDCGFKNPEVKNLAVRTWTCPNCGETHDRDENAALNIRREALVAAGISDTLNAHGGYVRPASAGNGLRSENHATLVV
modifications: Deinococcus radiodurans

How the values were obtained:
[1] = test system: Mus musculus EMX1 locus (mEMX1); test: In vivo TnpB editing of mouse EMX1 locus in liver, delivered with an LNP (indels detected by NGS); details: TnpB delivered with an LNP (Table (III) Compound C59), FIG. 7
[2] = test system: human EMX1 locus (hEMX1); test: TnpB endonuclease editing of human EMX1 locus in HEK293T cells (indels detected by NGS); assay type: cell-based; details: FIG. 5

Row | Molecule | editing of Mus musculus EMX1 locus (mEMX1) in liver in vivo [1] | editing of human EMX1 locus (hEMX1) [2]
1 | CCCCCC(CCCCC)CCOC(=O)CCCCCCCC(CCCCCCCC(=O)OC1CC2CCCC1C2)OC(=O)CCCN(C)C (centres unmarked) [Compound C59] | edits Mus musculus EMX1 locus (mEMX1) in liver in vivo | –
2 | B1 | – | edits human EMX1 locus
